Test results: patent publication US7018457B2, “Azo metal-complexed dyes, ink jet ink compositions and ink jet printing methods” (Polaroid Corporation, priority 2002, dated 2006)

Tests used:
Format in all cases: physicochemical
[1] = Light stability of dye coatings on receiver papers, Xenon arc at 10,000 ft. candles; conditions: for % Density Loss (Y) after 5 Day Xe Arc, Epson / % Density Loss (Y) after 5 Day Xe Arc, Kodak / % Density Loss (Y) after 5 Day Xe Arc, Watercolor: 5 days
Method: (§1) Experiments were carried out with Kodak® Premium Glossy Paper (available from Eastman Kodak Company, Rochester, N.Y.), Epson Premium Glossy Photo Paper (available from Epson Corporation) and Somerset Radiant White watercolor paper (a 100% cotton fiber paper with little or no sizing).
(§2) The dye samples were prepared by initially making a concentrated ink jet fluid (Fluid A) with 35.2% 1,5-pentanediol, 24.8% 2-pyrollidinone, 20% trimethylolpropane and 20% water (by weight). Two parts by weight of Fluid A were diluted with eight parts of water to form Fluid B consisting of approximately 7% 1,5-pentanediol, 5% 2-pyrollidinone, 4% trimethylolpropane and 84% water.
(§3) The test fluids were prepared by dissolving approximately 20 mg of dye with heating and vortex stirring into 1 gram of Fluid B. Once a clear fluid was obtained, the fluid was coated on the ink jet receiver material with a #4 Meyer rod. The coating was dried and the reflection density was measured. When the density was not in the range of from 0.7 to 1.3 the test fluid was diluted with additional Fluid B and the coatings repeated until the reflection density was in the range specified above.
(§4) Samples of the dyes were applied to the papers in a thin film as described above, air dried and the sample exposed in a Xenon arc at 10,000 ft. candles and also to cool white fluorescent bulbs with an irradiance of 2,500 ft. candles.
This example illustrates the light stability of the dyes of formulas V–XV in xenon arc testing. The tests were carried out as described in Example II.
The ozone tests were conducted in an ozone chamber constructed from a large Pyrex jar having a volume of approximately 1.2 ft.^3 and a low temperature mercury-argon lamp (Oriel 6035). Ozone was produced in situ by the direct photolysis of oxygen in the ambient air within the chamber. A fan in the chamber ensured that all the samples were uniformly exposed to the ozone. The lamp power supply was energized under the control of a timer such that the lamp was on for 15 minutes every two hours thereby producing an average ozone concentration of about 10 PPM (24 mg/m^3). The test was carried out for 16 hours, or 8 lamp cycles. The ozone tests were carried out on Epson paper. The light stability experiments were carried out for 5 days at […] on Kodak Glossy Paper.

[2] = Light stability of dye coatings on receiver papers, cool white fluorescent bulbs at 2,500 ft. candles; conditions: cool white fluorescent 2,500 ft. candles
Method: as §1, §2, §3, §4

[3] = Ozone stability of dye coatings in an ozone chamber; conditions: Epson paper; about 10 PPM ozone; 16 hours, 8 lamp cycles

Row | Compound | % Density Loss (Y) after 5 Day Xe Arc, Epson ([1]; Epson Premium Glossy Photo Paper, Xenon arc 10,000 ft. candles) [%] | % Loss in Density, Light ([1]; Kodak Glossy Paper, 5 days at 10,00 ft. candles) [%] | % Density Loss (Y) after 5 Day Xe Arc, Kodak ([1]; Kodak Premium Glossy Paper, Xenon arc 10,000 ft. candles) [%] | % Density Loss (Y) after 5 Day Xe Arc, Watercolor ([1]; Somerset Radiant White watercolor paper, Xenon arc 10,000 ft. candles) [%] | % Density Loss after 3 weeks under fluorescent light, Epson ([2]; Epson paper) [%] | % Density Loss after 3 weeks under fluorescent light, Kodak ([2]; Kodak paper) [%] | % Density Loss after 3 weeks under fluorescent light, Watercolor ([2]; watercolor paper) [%] | % Loss in Density, Ozone [3] [%] | % Density Loss (Y) after 5 Day Xe Arc, Epson ([1]; Table IV, Epson paper, Xenon arc as in Example II) [%] | % Density Loss (Y) after 5 Day Xe Arc, Kodak ([1]; Table IV, Kodak paper, Xenon arc as in Example II) [%] | % Density Loss (Y) after 5 Day Xe Arc, Watercolor ([1]; Table IV, watercolor paper, Xenon arc as in Example II) [%]
1 | Cc1nn(-c2ccc(S(=O)(=O)[O-])cc2)c(O)c1N=Nc1ccc(S(=O)(=O)[O-])cc1C(=O)[O-].[Na+].[Na+].[Na+] [Control, 2-[5-hydroxy-3-methyl-1-(4-sulfophenyl)-1H-pyrazol-4-ylazo]-5-sulfobenzoic acid sodium salt] | −7 | −90 | −85 | −23 | 1 | −51 | −7 | −29 | – | – | –
2 | Cc1nn(-c2ccc(S(=O)(=O)[O-])cc2)c2c1N=Nc1ccc(S(=O)(=O)[O-])cc1C(=O)[O][Co][O]2.O.[Na+].[Na+] [VI] | – | – | – | – | – | – | – | – | 17 | −52 | −19
